The structures appear in SMILES notation. Activity calls are given as the source filed them. No cut-off for these calls is given here.

In test [1] the test system is Rattus norvegicus. As to the kind of experiment: In vivo antidiabetic activity in streptozotocin-induced diabetic Wistar Rattus norvegicus (rat) assessed as reduction in serum glucose level at 25 mg/kg, po for 7 days measured at 30 to 120 min post-glucose challenge by oral glucose tolerance test. The format is functional, organism-based. Set-up: dose 25 mg/kg.
The subject of test [2] is Rattus norvegicus. As to the kind of experiment: In vivo antidiabetic activity in streptozotocin-induced diabetic Wistar Rattus norvegicus (rat) assessed as reduction in serum glucose level at 25 mg/kg, po measured after 2 to 4 hr by glucose oxidase method. The format is functional, organism-based. Set-up: dose 25 mg/kg.
Test [3] has as its system Rattus norvegicus. The experiment in a line: Increase in sucrose tolerance in fasted normoglycemic Wistar Rattus norvegicus (rat) assessed as reduction in serum glucose level at 25 mg/kg, po measured at 30-120 min post-sucrose challenge by oral sucrose tolerance test. The format is functional, organism-based. Set-up: dose 25 mg/kg.
Test [4] has as its system Rattus norvegicus. As to the kind of experiment: Increase in glucose tolerance in fasted normoglycemic Wistar Rattus norvegicus (rat) assessed as suppression of blood glucose AUC at 25 mg/kg, po measured at 30-120 min post-glucose challenge by oral glucose tolerance test. The format is functional, organism-based. Set-up: dose 25 mg/kg.
Test [5] relates to Rattus norvegicus. As to the kind of experiment: In vivo antidiabetic activity in streptozotocin-induced diabetic Wistar Rattus norvegicus (rat) assessed as serum HDL-cholesterol level at 25 mg/kg, po for 7 days by spectrophotometric analysis (reference value: 17.52 +/-2.1 mg/dl). The format is functional.
The subject of test [6] is Rattus norvegicus. The experiment in a line: In vivo antidiabetic activity in streptozotocin-induced diabetic Wistar Rattus norvegicus (rat) assessed as serum total cholesterol level at 25 mg/kg, po for 7 days by spectrophotometric analysis (reference value: 126.62 +/-4.7 mg/dl). The format is functional.
The test system of test [7] is Rattus norvegicus. The experiment in a line: In vivo antidiabetic activity in streptozotocin-induced diabetic Wistar Rattus norvegicus (rat) assessed as serum triglyceride level at 25 mg/kg, po for 7 days by spectrophotometric analysis (reference value: 128.77 +/-6.3 mg/dl). The format is functional.
For test [8], the system named is Rattus norvegicus. As to the kind of experiment: In vivo antidiabetic activity in streptozotocin-induced diabetic Wistar Rattus norvegicus (rat) assessed as serum LDL-cholesterol level at 25 mg/kg, po for 7 days by spectrophotometric analysis (reference value: 80.75 +/-3.4 mg/dl). The format is functional.
Test [9] concerns Rattus norvegicus. The experiment in a line: In vivo antidiabetic activity in streptozotocin-induced diabetic Wistar Rattus norvegicus (rat) assessed as serum VLDL-cholesterol level at 25 mg/kg, po for 7 days by spectrophotometric analysis (reference value: 28.12 +/-1.5 mg/dl). The format is functional.
The test system of test [10] is Rattus norvegicus. As to the kind of experiment: Increase in sucrose tolerance in fasted normoglycemic Wistar Rattus norvegicus (rat) assessed as reduction in serum glucose level at 7 mg/kg, po measured at 30-120 min post-sucrose challenge by oral sucrose tolerance test. The format is functional, organism-based. Set-up: dose 7 mg/kg.
Test [11] relates to Rattus norvegicus. As to the kind of experiment: In vivo antidiabetic activity in streptozotocin-induced diabetic Wistar Rattus norvegicus (rat) assessed as reduction in serum glucose level at 10 mg/kg, po measured after 4 hr by glucose oxidase method. The format is functional, organism-based. Set-up: dose 10 mg/kg.
Test [12] concerns Rattus norvegicus. As to the kind of experiment: Increase in glucose tolerance in fasted normoglycemic Wistar Rattus norvegicus (rat) assessed as suppression of blood glucose AUC at 10 mg/kg, po measured at 30-120 min post-glucose challenge by oral glucose tolerance test. Set-up: dose 10 mg/kg. The format is functional, organism-based.
The subject of test [13] is Rattus norvegicus. The experiment in a line: In vivo antidiabetic activity in streptozotocin-induced diabetic Wistar Rattus norvegicus (rat) assessed as reduction in serum glucose level at 0.5 mg/kg, po for 7 days measured at 30 to 120 min post-glucose challenge by oral glucose tolerance test. The format is functional, organism-based. On the set-up: dose 0.5 mg/kg.
Test [14] concerns Rattus norvegicus. As to the kind of experiment: In vivo antidiabetic activity in streptozotocin-induced diabetic Wistar Rattus norvegicus (rat) assessed as serum total cholesterol level at 0.5 mg/kg, po for 7 days by spectrophotometric analysis (reference value: 126.62 +/-4.7 mg/dl). The format is functional.
The subject of test [15] is Rattus norvegicus. The experiment in a line: In vivo antidiabetic activity in streptozotocin-induced diabetic Wistar Rattus norvegicus (rat) assessed as serum triglyceride level at 0.5 mg/kg, po for 7 days by spectrophotometric analysis (reference value: 128.77 +/-6.3 mg/dl). The format is functional.
Test [16] concerns Rattus norvegicus. The experiment in a line: In vivo antidiabetic activity in streptozotocin-induced diabetic Wistar Rattus norvegicus (rat) assessed as serum LDL-cholesterol level at 0.5 mg/kg, po for 7 days by spectrophotometric analysis (reference value: 80.75 +/-3.4 mg/dl). The format is functional.
The subject of test [17] is Rattus norvegicus. The experiment in a line: In vivo antidiabetic activity in streptozotocin-induced diabetic Wistar Rattus norvegicus (rat) assessed as serum VLDL-cholesterol level at 0.5 mg/kg, po for 7 days by spectrophotometric analysis (reference value: 28.12 +/-1.5 mg/dl). The format is functional.
Test [18] relates to Rattus norvegicus. As to the kind of experiment: In vivo antidiabetic activity in streptozotocin-induced diabetic Wistar Rattus norvegicus (rat) assessed as serum HDL-cholesterol level at 0.5 mg/kg, po for 7 days by spectrophotometric analysis (reference value: 17.52 +/-2.1 mg/dl). The format is functional.

`COc1cc(/C=C2\CC/C(=C\c3ccc(O)c(OC)c3)C2=O)ccc1O`: the inhibition entry in the test on Rattus norvegicus [1] and in the test on Rattus norvegicus [2] was “Active” in each case. For the same compound, the result in the test on Rattus norvegicus [3] and with Rattus norvegicus [4] was Active. Further, the Activity was 26.03 mg/dL in the test on Rattus norvegicus [5]; 80.41 mg/dL in the test on Rattus norvegicus [6]; 81.9 mg/dL in the test on Rattus norvegicus [7]; 25.4 mg/dL with Rattus norvegicus [8]; 20.98 mg/dL with Rattus norvegicus [9].

For the compound `C[C@H]1O[C@H](O[C@H]2[C@H](O)[C@@H](O)[C@@H](O[C@H]3[C@H](O)[C@@H](O)C(O)O[C@@H]3CO)O[C@@H]2CO)[C@H](O)[C@@H](O)[C@@H]1N[C@H]1C=C(CO)[C@@H](O)[C@H](O)[C@H]1O` (stereo partly drawn), in the test with Rattus norvegicus [10], the result was Active.

As for `COc1ccc(Cl)cc1C(=O)NCCc1ccc(S(=O)(=O)NC(=O)NC2CCCCC2)cc1` [GLYBURIDE], the inhibition result in the test on Rattus norvegicus [11] and with Rattus norvegicus [13] was “Active” each time. Besides, the outcome in the test with Rattus norvegicus [12] was Active. Further, the Activity stood at 81.9 mg/dL with Rattus norvegicus [14]; 87.4 mg/dL in the test on Rattus norvegicus [15]; 39.5 mg/dL in the test on Rattus norvegicus [16]; 19.4 mg/dL with Rattus norvegicus [17]; 27.3 mg/dL with Rattus norvegicus [18].
